Measured values published in PMC12323867 (RSC Medicinal Chemistry, 2025).
Like-named read-outs stand apart in the source and are kept apart here.

Experiments:
[1] = target: T1, LSD1-HDAC1-CoREST complex (Homo sapiens, UniProt O60341); experiment: LSD1 HRP-coupled demethylase assay, SP2509/SP2577 analogues; assay type: biochemical
T1 construct: full length native LSD1 (UniProt ID: O60341); made in house; host or cells: HEK 293F cells (co-transfection, pcDNA3 vectors)
Method: The analogues synthesised were then tested for their ability to inhibit LSD1 using purified LSD1-HDAC1-CoREST complex (Fig. 2B). We used an established fluorescent read out horseradish peroxidase (HRP) assay to monitor LSD1 enzymatic activity in the CoREST complex[8] (see ESI ^† for full details).
(§1) 2. Supplementary Information: Biology
(§2) 2.1. LSD-HDAC1-CoREST expression and purification
(§3) Lysis Buffer (Buffer A) Wash Buffer (Buffer B)
(§4) • 50 mM Tris/Cl pH 7.5 • 50 mM Tris/Cl pH 7.5
(§5) • 50 mM Potassium Acetate • 50 mM Potassium Acetate […]
(§6) Cleavage Buffer (Buffer C) Gel Filtration Buffer (Buffer D)
(§7) • 50 mM Tris/Cl pH 7.5 Filtered at vacuum.
(§8) • 50 mM Potassium Acetate • 50 mM Tris/Cl pH 7.5
(§9) • 5 % v/v Glycerol • 50 mM Potassium Acetate
(§10) • 0.5 mM tris(2- • 0.5 mM TCEP carboxyethyl)phosphine (TCEP)
(§11) The CoREST ternary complex was comprised of full length native LSD1 (UniProt ID: O60341), full length HDAC1 (UniProt ID: Q13547) and N-terminally truncated RCOR1 (86-485aa) (UniProt ID:
(§12) Q9UKL0). Protein constructs were cloned into pcDNA3 vector. The RCOR1 constructs contained an N-terminal (His)10(Flag)3 tag followed by a Tev protease cleavage site. The constructs for ternary complex were co-transfected into suspension-grow HEK 293F cells (Thermofisher Scientific) with polyethylenimine (PEI) (Sigma) and harvested after 48 hours. This section of the procedure was carried out as described previously in literature.11,12
(§13) Cell pellets from 1.2 L culture were defrosted, and buffer A (30 mL) was added. The solution was sonicated (Soniprep 150) in an beaker of ice using a 9 mm probe at 10 ampules; operated with 10 […]
2.2. SP2509/SP2577 analogues LSD1 HRP-coupled demethylase assay protocol The commercial reagents for the assay were HRP and Amplex® Ultrared, which are available to purchase from ThermoFisher (31490) and Invitrogen (10737474), respectively. HRP was made up to 8 mg/mL stock solution in 1xPBS buffer, divided into 10 µL aliquots, snap-frozen in liquid nitrogen and stored at -80 °C. Amplex® Ultrared was made up to 10 mM solution in DMSO, divided into 20 µL aliquots and wrapped in foil, away from light and stored at -20 °C. For each assay experiment, CoREST complex was diluted to 500 nM in assay buffer (20 mM HEPES pH 7.5 and 50 mM NaCl).
HRP was defrosted by diluting each aliquot in 90 µL 1xPBS solution, making a 0.8 mg/mL solution.
Amplex® Ultrared was made up to 200 µM in assay buffer. HRP and Amplex® Ultrared were pre-mixed before addition to the plate. H3K4Me2 substrate (4 mM in deionised water) was diluted to 300 µM in assay buffer. All stocks were stored on ice during assay preparation.
The assay was carried out using a ‘black well’ 96 well plate (Corning no. 3915) in a reaction volume of 100 μL. The final concentrations in the assay were as follows: 50 nM CoREST complex, 10 μM Amplex® UltraRed, 0.04 mg/mL HRP and 15 μM H3K4Me2 peptide substrate. The final DMSO concentration in each well was 1.1 %. Three wells of each experiments were designated ‘background controls’ and contained 85 μL assay buffer, premixed Amplex® UltraRed and HRP (10 µL) and H3K4Me peptide substrate (300 μM, 5 µL).
A stock solution of inhibitor (1 -5 mM in DMSO) was subjected to an inhibitor dilution series, in Eppendorf tubes, in 100 % DMSO. Each new inhibitor stock (4 μL) was diluted in assay buffer (1 in 75) within a new Eppendorf set with assay buffer (20 mM HEPES pH 7.5 and 50 m M NaCl), ensuring the percentage of DMSO was consistent throughout the series. To each well of interest, Inhibitor in assay buffer (75 μL) was added, and CoREST complex (500 nM, 10 µL) was added thereafter. The plate was placed on a rocker and pre -incubated for 30 mins. To each well, premixed Amplex® UltraRed and HRP (10 µL) was added before H3K4Me 2 peptide substrate in assay buffer solution (300 μM, 5 µL) was added to the wall of the plate. The plate was covered in foil and spun down for one minute before being placed in the plate reader. The final percentage concentration of DMSO in […]

[2] = test system: H3K4me2 in HCT116 cells; experiment: Histone methylation H3K4me2 by western blot; assay type: cell-based, human; details: HCT116, 0.1–10 μM, 24 hours, H3K4me2 antibody
Method: We next screened 25–33 and SP2509 over a concentration range of 0.1–10 μM in HCT116 cells (obtained from ATCC, CCL-247) and determined LSD1 abundance after 24 hours with an antibody for LSD1 (Fig. S4 ^†). […] Using the same conditions, we also determined the effects of SP2509, 25, 27, 28, 30 and 31 on histone H3 lysine 4 dimethyl (H3K4me2) a validated substrate for LSD1 using a specific antibody for H3K4me2 (Fig. S4 ^†).
Compounds 39–41, 49, 52 and 54 were screened for LSD1 degradation in HCT116 cells using a specific antibody for LSD1. This was performed side-by-side with TCP. Compounds were tested at concentration ranges of 0.2–20 μM and LSD1 abundance was quantified at 24 hours (Fig. S5 ^†). 49, 52 and 54 were also evaluated at 48 and 72 hours. […] We also determined the effects of these compounds on the histone methyl marker H3K4me2 (Fig. S5 and S6 ^†).
2.5 Protocols for LSD1 degradation and histone methylation in HCT116 cells HCT116 human colon carcinoma cells were grown in Dulbecco’s Modified Eagle Medium (DMEM) supplemented with Fetal Bovine Serum (FBS, 10% final concentration) and 1x glutamine/penicillin/streptomycin. Cells were incubated at 37 °C and 5% CO2. Cells were treated with compounds (0.1-20 µM) with a final DMSO volume of 0.04%. DMSO (0.04%) treated and untreated (WT) cells were included as controls.
HCT116 cells were seeded into six well plates (400000 cells per well) and after requisite compound treatment time (24h, 48h, 72h) cells were harvested and either snap-frozen in liquid nitrogen or lysed in lysis buffer (50mM Tris-HCl, 150 mM NaCl, 0.5% NP-40, 0.5% Triton X-100 + protease inhibitor) on ice for 30 mins. This was centrifuged (15000 rpm, 4 °C, 15 mins) and the supernatant collected.
H2SO4 (0.4 M, equal volume) was added to the pellets for histone extraction and the tubes incubated overnight at 4 °C. Following this, the histone extract was centrifuged (15000 rpm, 4 °C, 15 mins) and the supernatant collected. Protein concentrations of whole cell extract were quantified via Bradford Assay using BIO-RAD Protein Assay Dye Reagent Concentrate.
Western blots were run on NuPAGE 4-12% Bis-Tris gels, with 30 µg of protein (whole cell extract) or an equivalent volume of histone extract loaded per lane, with all extracts dyed with 4x NuPAGE LDS Sample Buffer. PageRuler Plus Prestained Ladder was used as a reference. Gel electrophoresis was carried out at 140 V for 60-90 mins, following which the proteins were transferred onto nitrocellulose membrane at 30 V for 60 mins. Membranes were blocked in LI-COR Intercept Blocking Buffer overnight at RT on a roller, following which the membrane was probed with primary antibodies for 1 h at RT. The membrane was washed with PBS + 0.1% Tween (3 x 10 mins), then incubated with secondary antibodies for 50 mins at RT. The membrane was washed again (PBS Tween 2 x 10 mins, PBS 1 x 10 mins) following which the blot was visualised with the Odyssey Infrared Imaging System. Image processing and quantification was performed with ImageStudio Lite. […]
a-tubulin (mouse) – Sigma, t5168 (1:10000 dilution)

[3] = target: T2, HDAC1-CoREST-LSD1 complex (Homo sapiens, UniProt O60341); experiment: LSD1 HRP-coupled demethylase assay, TCP analogues; assay type: biochemical; details: for LSD1 inhibition at 50 μM: single concentration 50 μM, compared to no compound treatment control
T2 construct: full length native LSD1 (UniProt ID: O60341); made in house; host or cells: HEK 293F cells (co-transfection, pcDNA3 vectors)
Method: We then evaluated LSD1 inhibition in the LSD1-HDAC1-CoREST complex using the established horseradish peroxidase (HRP) assay.[8]
as §1, §2, §3, §4, §5, §6, §7, §8, §9, §10, §11, §12, §13
Components and concentrations for the HRP-coupled demethylase assay […]
The assay components are shown at their final concentrations per well in the table above. CoREST complex (HDAC 1/RCOR1/LSD1) was added to the assay buffer alongside either DMSO or the relevant inhibitor at the desired concentration on black-walled 96 well plates. Alongside this was another control, with DMSO but no CoREST or inhibitor. Plates were spun to 3000 rpm between each addition of a reagent. Plates were incubated at 20 °C for 30 mins, following which HRP/Amplex Ultrared (1:1 mixture) and peptide was added. Plates were spun, then read on an PerkinElmer 2030 Explorer plate reader, with excitation of 530 nm and […] of 590 nm, with 7 readings taken over […]
Components, where bought in, are listed below:
HRP – Pierce™ Horseradish Peroxidase, Invitrogen
H3K4me2 peptide – Histone H3 dimethyl lysine-4 peptide, Enzo Life Sciences Amplex UltraRed, ThermoFisher Scientific
To the assay buffer was added HRP/AMP in each well to concentrations equal to those in above, following which hydrogen peroxide solution (diluted from 3% hydrogen peroxide solution into a 20 mM stock) was added, in a 1 in 3 dilution series with final concentrations starting from 3 mM.
Negative control wells contained either 100% buffer or as above with no hydrogen peroxide solution.

[4] = LSD1 enzymatic activity, complex 50 nM, HRP assay, SP2509 value is mean of three sets, read-out: LSD1-HDAC1-CoREST IC50
[5] = per parallel set, each set with SP2509 as reference standard, read-out: IC50 from dose response curves (Figure S1)

CC(=NNC(=O)c1cccc(S(=O)(=O)N2CCN(C(=O)OC(C)(C)C)CC2)c1)c1cc(Cl)ccc1O [compound 11]
IC50 ([1]; LSD1 enzymatic activity, complex 50 nM, HRP assay, read-out: LSD1-HDAC1-CoREST IC50): > 20 µM

C/C(=N\NC(=O)c1cccc(S(=O)(=O)N2CCOCC2)c1)c1cc(OCCOCCOCCC(=O)NCCNc2cccc3c2C(=O)N(C2CCC(=O)NC2=O)C3=O)ccc1O (stereo not shown) [compound 31]
H3K4me2 abundance [2]: no increase in H3K4me2

C/C(=N\NC(=O)c1cccc(S(=O)(=O)N2CCOCC2)c1)c1cc(OCCOCCC(=O)N[C@H](C(=O)N2C[C@H](O)C[C@H]2C(=O)NCc2ccc(-c3scnc3C)cc2)C(C)(C)C)ccc1O [compound 25]
H3K4me2 abundance [2]: no increase in H3K4me2

C/C(=N\NC(=O)c1cccc(S(=O)(=O)N2CCNCC2)c1)c1cc(Cl)ccc1O [compound 14]
IC50 [1, 4]: 0.0206 µM
IC50 [1, 5]: 0.021 µM

C/C(=N\NC(=O)c1cccc(S(=O)(=O)N2CCOCC2)c1)c1cc(OCCOCCC(=O)NCCNc2cccc3c2C(=O)N(C2CCC(=O)NC2=O)C3=O)ccc1O (stereo not shown) [compound 30]
H3K4me2 abundance [2]: no increase in H3K4me2

O=C(CCCCC(=O)NC1CC1c1ccccc1)NCCNc1cccc2c1C(=O)N(C1CCC(=O)NC1=O)C2=O (stereo not shown) [compound 40]
LSD1 inhibition at 50 μM ([3]; complex 50 nM): not LSD1 inhibitors

C/C(=N\NC(=O)c1cccc(S(=O)(=O)N2CCOCC2)c1)c1cc(OCCOCCC(=O)OC(C)(C)C)ccc1O [compound 13]
IC50 [1, 4]: 0.159 µM

C/C(=N\NC(=O)c1cccc(S(=O)(=O)N2CCOCC2)c1)c1cc(OCCCC(=O)N[C@H](C(=O)N2C[C@H](O)C[C@H]2C(=O)NCc2ccc(-c3scnc3C)cc2)C(C)(C)C)ccc1O [compound 27]
H3K4me2 abundance [2]: no increase in H3K4me2

C/C(=N\NC(=O)c1cccc(S(=O)(=O)N2CCOCC2)c1)c1ccc(OCCOCCC(=O)OC(C)(C)C)cc1O [compound 12]
IC50 [1, 4]: 0.113 µM

Cc1ncsc1-c1ccc(CNC(=O)[C@@H]2C[C@@H](O)CN2C(=O)[C@@H](NC(=O)CCCCCCCCCCC(=O)NC2CC2c2ccccc2)C(C)(C)C)cc1 (stereo partly shown) [compound 39]
LSD1 inhibition at 50 μM ([3]; complex 50 nM): not LSD1 inhibitors

C/C(=N\NC(=O)c1cccc(S(=O)(=O)N2CCN(CCOCCC(=O)OC(C)(C)C)CC2)c1)c1cc(Cl)ccc1O [compound 15]
IC50 [1, 4]: 0.108 µM

COc1ccc(C(C)=NNC(=O)c2cccc(S(=O)(=O)N3CCOCC3)c2)c(O)c1 [compound 10]
IC50 [1, 4]: 0.0124 µM
IC50 [1, 5]: 0.012 µM

COc1ccc(O)c(C(C)=NNC(=O)c2cccc(S(=O)(=O)N3CCOCC3)c2)c1 [compound 8]
IC50 [1, 4]: 0.0145 µM
IC50 [1, 5]: 0.015 µM

O=C(CCCCCCCCCCC(=O)NC1CC1c1ccccc1)NCCNc1cccc2c1C(=O)N(C1CCC(=O)NC1=O)C2=O (stereo not shown) [compound 41]
LSD1 inhibition at 50 μM ([3]; complex 50 nM): not LSD1 inhibitors

COC(=O)c1ccc([C@@H]2C[C@H]2N)cc1 [compound 55]
IC50 ([3]; complex 50 nM, mean ± SD from three replicates): 0.094 µM
enhancement in LSD1 inhibition compared to TCP ([3]; ratio of IC50 values): approximately 100 fold

COc1ccc(O)c(C=NNC(=O)c2cccc(S(=O)(=O)N3CCOCC3)c2)c1 [compound 9]
IC50 [1, 4]: 0.0128 µM
IC50 [1, 5]: 0.013 µM

Cc1ncsc1-c1ccc(CNC(=O)[C@@H]2C[C@@H](O)CN2C(=O)[C@@H](NC(=O)CCCCC(=O)NC2CC2c2ccccc2)C(C)(C)C)cc1 (stereo partly shown) [compound 38]
LSD1 inhibition at 50 μM ([3]; complex 50 nM): modest inhibition
